Results published in patent US20230151363A1, “MODIFIED SHORT-INTERFERING RNA COMPOSITIONS AND THEIR USE IN THE TREATMENT OF CANCER” (THE RESEARCH FOUNDATION FOR THE STATE UNIVERSITY OF NEW YORK, priority 2020, published 2023).

Test system: BCL-2 protein
Test: Western immunoblot analysis of BCL-2 protein
Assay type: cell-based, human
Details: cancer cells treated with 5-FU alone
Experimental: Western immunoblot analysis. Twenty-four hours prior to transfection 1×10^5 cells were plated in 6 well plates. Cells were either transfected using Oligofectamine (Thermo Fischer) or no transfection vehicle, with 50 nM control (scrambled) siRNA (Thermo Fischer), unmodified siBCL2 or an exemplary modified siBCL2 siRNA. Three days following transfection protein was collected in RIPA buffer with protease inhibitor (Sigma). Equal amounts of protein (15 μg), were separated on 12% sodium dodecyl sulfate-polyacrylamide gels as described in Laemmli U K. Nature. 1970; 227(5259) pp. 680-685, the entire contents of which is incorporated herein by reference. Proteins were probed with anti-BCL2 antibody (1:1000) (Thermo Fischer) and anti-GAPDH antibody (1:100000) (Santa Cruz). Horseradish peroxidase conjugated secondary antibodies against mouse or rabbit (1:5000, Santa Cruz Biotech Inc.) were added. Protein bands were then visualized with autoradiography film using SuperSignal West Pico Chemiluminescent Substrate (Thermo Fischer).

SMILES: O=c1[nH]cc(F)c(=O)[nH]1 [5-FU, 5-fluoro-1H-pyrimidine-2,4-dione]
- BCL-2 expression (Western blot): does not result in reduction of BCL-2 expression
